Test results reported in publication PMC7979765, “trans-Translation inhibitors bind to a novel site on the ribosome and clear Neisseria gonorrhoeae in vivo” (Nature Communications, 2021).
Values after ≈ are worked out from the molar mass of the structure shown. Values joined by “and” are separate entries in the source; they are usually repeats but may differ in a detail not shown here. Equal values may be shown once.

Key:
[1] = Liver microsome stability, murine; format: in vitro ADME, mouse; conditions: murine liver microsomes
Summary of the method: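 Compounds incubated with liver microsomes plus NADPH over 30 min; parent remaining quantified by reverse-phase LC/MS. Half-life from linear regression over several time points.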

HeLa cells [2] = test: Mammalian cell cytotoxicity (CC50); format: cell-based, human; conditions: one value per replicate
trans-translation = test: microbe, parasite or virus in culture; format: cell-based, Escherichia coli; conditions: for Luminescence readout (Envision plate reader) / Luminescence, background subtracted (DMSO control): per replicate
HeLa cells [3] = test: Mammalian cell cytotoxicity (CC50); format: cell-based, human; conditions: HeLa, replicates
Procedure: The half maximal cytotoxic concentration (CC50) of each compound against HeLa cells (ATCC CCL-2) was measured as previously described. […] The mean values for each biological replicate were averaged, and the CC50 was determined using a 4-parameter nonlinear curve fitting algorithm (GraphPad Prism). The average of the CC50s from two biological replicates was calculated and reported.

Escherichia coli = test: microbe, parasite or virus in culture; format: cell-based; conditions: E. coli KLE701 (ΔtolC::tet); source data, individual replicates
[4] = Aqueous solubility (nephelometric); format: physicochemical
Neisseria gonorrhoeae = test: MIC, microbroth dilution, G77L medium; format: cell-based; conditions: Neisseria gonorrhoeae ATCC 49226; source data, individual replicates

In the case of `O=C(Nc1nnc(C2CCCCC2)o1)c1ccc(Cl)cc1` [MBX-4370], the “Average MLMS t½” value ([1]; average of replicates) is reported as less than 5 min, the “MLMS t½” value ([1]; individual replicates) is reported as less than 5 min and the CC50 (HeLa cells [2]) is reported as 18.1 µM and 19.4 µM and 21.8 µM and 14.3 µM and 14.5 µM and 13.7 µM. The IC50 (trans-translation; Eco Luc reporter, one value per replicate, read-out: IC50) was 0.12 µM and 0.122 µM and 0.145 µM, the “Luminescence readout (Envision plate reader)” value (from here on “Luminescence readout”) (trans-translation; [Compound] 0.046875 µM) was 496280 and 436160 and 442680 and the “Luminescence readout” value (trans-translation; [Compound] 0.0625 µM) was 452080 and 467160 and 463360. The “Luminescence, background subtracted (DMSO control)” value (“Luminescence, background subtracted” for short) (trans-translation; [Compound] 0.0625 µM) was 23120 and 8920 and 25040, the “Luminescence readout” value (trans-translation; [Compound] 0.09375 µM) was 467480 and 440040 and 454600 and the “Luminescence readout” value (trans-translation; [Compound] 0.125 µM) was 460600 and 443360 and 458920. For the same compound, the “Luminescence readout” value (trans-translation; [Compound] 0.1875 µM) was 449320 and 468280 and 463760, the “Luminescence, background subtracted” value (trans-translation; [Compound] 0.1875 µM) was 20360 and 10040 and 25440 and the “Luminescence readout” value (trans-translation; [Compound] 0.25 µM) was 454000 and 469520 and 468760. The “Luminescence, background subtracted” value (trans-translation; [Compound] 0.25 µM) was 25040 and 11280 and 30440, the “Luminescence readout” value (trans-translation; [Compound] 0.375 µM) was 472720 and 482560 and 460640 and the “Luminescence, background subtracted” value (trans-translation; [Compound] 0.375 µM) was 43760 and 24320 and 22320. For the same compound, the “Luminescence readout” value (trans-translation; [Compound] 0.5 µM) was 517120 and 524880 and 509520, the “Luminescence, background subtracted” value (trans-translation; [Compound] 0.5 µM) was 88160 and 66640 and 71200 and the “Luminescence readout” value (trans-translation; [Compound] 0.75 µM) was 547920 and 542080 and 527800. For the same compound, the “Luminescence, background subtracted” value (trans-translation; [Compound] 0.75 µM) was 118960 and 83840 and 89480, the “Luminescence readout” value (trans-translation; [Compound] 1 µM) was 530760 and 535720 and 544960 and the “Luminescence, background subtracted” value (trans-translation; [Compound] 1 µM) was 101800 and 77480 and 106640. The “Luminescence readout” value (trans-translation; [Compound] 1.5 µM) was 476080 and 424480 and 540520, the “NORMALIZED DATA (Fraction DMSO Control)” value (HeLa cells [3]; [CMPD] 0.78125 µM) was 1.07 Fraction DMSO Control and 1.036 Fraction DMSO Control and 1.021 Fraction DMSO Control and 1.042 Fraction DMSO Control and 1.024 Fraction DMSO Control and 0.9956 Fraction DMSO Control and the “NORMALIZED DATA (Fraction DMSO Control)” value (HeLa cells [3]; [CMPD] 1.5625 µM) was 1.061 Fraction DMSO Control and 1.02 Fraction DMSO Control and 0.9814 Fraction DMSO Control and 1.082 Fraction DMSO Control and 1.03 Fraction DMSO Control and 0.9471 Fraction DMSO Control. For the same compound, the “NORMALIZED DATA (Fraction DMSO Control)” value (HeLa cells [3]; [CMPD] 3.125 µM) was 1.05 Fraction DMSO Control and 1.039 Fraction DMSO Control and 0.9574 Fraction DMSO Control and 1.045 Fraction DMSO Control and 1.018 Fraction DMSO Control and 0.9296 Fraction DMSO Control, the “NORMALIZED DATA (Fraction DMSO Control)” value (HeLa cells [3]; [CMPD] 6.25 µM) was 1.047 Fraction DMSO Control and 1.02 Fraction DMSO Control and 0.985 Fraction DMSO Control and 1.025 Fraction DMSO Control and 0.9985 Fraction DMSO Control and 0.9262 Fraction DMSO Control and the “NORMALIZED DATA (Fraction DMSO Control)” value (HeLa cells [3]; [CMPD] 12.5 µM) was 0.7981 Fraction DMSO Control and 0.8325 Fraction DMSO Control and 0.8129 Fraction DMSO Control and 0.8056 Fraction DMSO Control and 0.7525 Fraction DMSO Control and 0.7321 Fraction DMSO Control. The “NORMALIZED DATA (Fraction DMSO Control)” value (HeLa cells [3]; [CMPD] 25 µM) was 0.4723 Fraction DMSO Control and 0.5367 Fraction DMSO Control and 0.6164 Fraction DMSO Control and 0.4594 Fraction DMSO Control and 0.5425 Fraction DMSO Control and 0.5809 Fraction DMSO Control, the “NORMALIZED DATA (Fraction DMSO Control)” value (HeLa cells [3]; [CMPD] 50 µM) was 0.2465 Fraction DMSO Control and 0.3246 Fraction DMSO Control and 0.4191 Fraction DMSO Control and 0.3946 Fraction DMSO Control and 0.4088 Fraction DMSO Control and 0.4903 Fraction DMSO Control and the “NORMALIZED DATA (Fraction DMSO Control)” value (HeLa cells [3]; [CMPD] 100 µM) was 0.4495 Fraction DMSO Control and 0.5491 Fraction DMSO Control and 0.5315 Fraction DMSO Control and 0.5237 Fraction DMSO Control and 0.6389 Fraction DMSO Control and 0.5972 Fraction DMSO Control. The MIC (Escherichia coli) was 0.4778 µg/mL and 0.9555 µg/mL, the “Average solubility” value [4] was 50 µM and the Solubility ([4]; single replicates) was 50 µM (≈ 15.3 µg/mL). For the same compound, the MIC (Neisseria gonorrhoeae) was 0.2388 µg/mL and 0.1196 µg/mL.
